The source of these data is US11026914B2 (DelMar Pharmaceuticals, Inc., priority 2013, dated 2021).

Like-named read-outs stand apart in the source and are kept apart here. Where only a bound is given, the exact number is not on record here.

Series [1] relates to intracranial U251 human glioma tumors. The source says:
However, TMZ-resistance has emerged as a significant unmet medical need, as DNA repair enzyme O^6-methylguanine DNA methyltransferase (MGMT) removes the methyl-group adducts caused by TMZ. […] We thus sought to investigate how our CSC and non-CSC panel would respond to VAL-083 alone or in combination with XRT. We further investigated the activity of VAL-083 in in vivo models of drug-resistant GBM in comparison to TMZ. Rag2 mice bearing intracranial human GBM xenograft tumors of either MGMT-positive and TMZ-resistant origin (BT74), or MGMT-negative and TMZ-sensitive origin (U251) were treated. VAL-083 was given i.p. 3 times/week×3 weeks, and the efficacy of VAL-083 in controlling tumor growth compared to TMZ (30 mg/kg). Disease progression was evaluated by overall survival, clinical observations and body weight measurements.
On study day 0 for each set of mice, 44 female Rag2 mice were inoculated intracranially in the right caudate-putamen nucleus (coordinates: ML-1.5 mm; AP 1 mm; DV −3.5 mm) with 7.5×10^4 U251 human glioma cells.

The next series concerns GBM. As to conditions: cited from earlier work.
The subject of series [2] is normal human neural stem cells. The settings on record: neurosphere growth assays; cited from earlier work.
In series [3] the test system is GBM cell lines SF188, U251, and T98G. Put plainly: Inhibition of tumor cell growth in GBM cell lines (FIG. 1, FIG. 6). The series is classed as cell-based, human. The settings on record: independent of MGMT.
The conditions of series [4]: human, in vivo.
From the text: (§1) The study utilizes a 3+3 dose escalation design, until the MTD or the maximum specified dose is reached. […] In Phase II, additional patients will be treated at the MTD (or other selected optimum Phase II dose) to measure tumor responses. […] For these studies, the following is a summary of the inclusion criteria: (1) Patients must be greater than or equal to 18 years old. […] The following is a summary of the exclusion criteria: (1) There is a current history of neoplasm other than the entry diagnosis. Patients with previous cancers treated and cured with local therapy alone may be considered. (2) There is evidence of leptomeningeal spread of disease.
Open-label, single-arm Phase I/II dose-escalation study in patients with histologically-confirmed initial diagnosis of primary WHO Grade IV malignant glioma (glioblastoma). […] The study utilizes a 3+3 dose-escalation design.
In series [5] the test system is cancer stem cells (BT74, GBM4 and GBM8). As to conditions: BT74, GBM4 and GBM8, neurosphere growth assays; cited from earlier work.
Series [6] has as its system recurrent glioblastoma multiforme (GBM). Put plainly: Phase I/II dose-escalation study: tumor response (RANO) in recurrent GBM patients.
From the text: as §1
Higher doses may be enrolled subject to completion of mandated safety observation period with Cohort 6 (30 mg/m^2). Patients enrolled present with refractory progressive GBM and a dire prognosis. […] The primary endpoint of this portion of the study is to determine a modernized dosing regimen for advancement to registration-directed clinical trials. […] In this design, it is not possible to perform a rigorous assessment of patient benefit due to slowed tumor growth. Tumor volume is assessed during the study based on RANO criteria.
Open-label, single-arm Phase I/II dose-escalation study in patients with histologically-confirmed initial diagnosis of primary WHO Grade IV malignant glioma (glioblastoma). […] The study utilizes a 3+3 dose-escalation design. […] The RANO (Response Assessment in Neuro-Oncology) criteria divide responses into four general categories: complete response, partial response, stable disease, and regression.
Series [7] can be described thus: Plasma pharmacokinetics in brain tumor patients after IV infusion (WinNonlin non-compartmental analysis). The series is classed as in vivo, human. As to conditions: for dose dependence of systemic exposure: dose escalation in patients. As for the experimental part: Plasma drug concentration analysis data were analyzed using WinNonlin®, version 2.1A software (Pharsight Inc., Mountain View, Calif.) and Microsoft Office Excel 2007. Pharmacokinetic analysis was conducted by Dr. Sarath Kanekal, Ph.D. Use of MS Excel was limited to receipt of raw data, transfer into WinNonlin and generation of tables (Mean and SD) and graphs for the report.
The starting dose for Cohort #1 was 1.5 mg/m^2 IV daily×3 every 21 days. Cohorts 2 and 3 received DAG at doses of 3.0 and 5.0 mg/m^2 IV daily×3 every 21 days, respectively; cohort 4 received 10 mg/m^2. Dose escalation beyond 10 mg/m^2, up to 40 mg/m^2 IV daily×3 every 21 days is planned in the ongoing trial. Sample collection was on Day 1 at each dose level at the following time points: pre-dose, and 0.25, 0.5, 1, 2, 4, 6 h 15±5 minutes, 30±5 minutes, 60±10 minutes, 120±10 minutes, 240±15 minutes, and 360±15 minutes after the end of the IV study drug administration and immediately prior to Cycle 1, Day 2 of dosing. Drug concentration data was received from at least 3 patients for cohorts 1, 2 and 3, but only from 2 patients in cohort 4.
For the purposes of this interim analysis a fixed constant infusion time of 30 minutes and nominal collection time intervals were used for all patients. […] For the final PK analysis individual patient infusion time and exact collection time are used.
Pharmacokinetic analyses were performed on the plasma concentration versus time data using WinNonlin (Ver 2.1A) via non-compartmental analysis (NCA). A model for constant infusion (WinNonlin Model #202) was used for the analyses. Uniform weighting was used for all data. AUCall was calculated by the linear trapezoid rule and t1/2 of lambda z was used for estimating the terminal half-life. The last 2 or 3 concentrations above LLOQ were used for calculating lambda z. For clearance (CL) and Volume of Distribution (Vz), observed CL and observed Vz values outputted by WinNonlin are reported here. All plasma concentrations measurements reported as below the limit of quantitation (BLQ) was set equal to zero, and those reported as NS (no sample), if any, were left blank and treated as missing. Mean concentration and WinNonlin derived parameters are presented with standard deviation.

Series [8] relates to progressive secondary brain tumor. In words: Phase I/II dose-escalation study: tumor response in progressive secondary brain tumor patients. The series is classed as in vivo, human. As to conditions: n = 6. The source says:
(2) There is evidence of leptomeningeal spread of disease.
Outcomes analysis of cohort 6 is ongoing.

For series [9], the target named is glycogen synthase kinase-3β (GSK-3β) (Homo sapiens, UniProt P49841). The settings on record: cited from earlier work.
glycogen synthase kinase-3β (GSK-3β), sequence (P49841 whole entry, species assumed): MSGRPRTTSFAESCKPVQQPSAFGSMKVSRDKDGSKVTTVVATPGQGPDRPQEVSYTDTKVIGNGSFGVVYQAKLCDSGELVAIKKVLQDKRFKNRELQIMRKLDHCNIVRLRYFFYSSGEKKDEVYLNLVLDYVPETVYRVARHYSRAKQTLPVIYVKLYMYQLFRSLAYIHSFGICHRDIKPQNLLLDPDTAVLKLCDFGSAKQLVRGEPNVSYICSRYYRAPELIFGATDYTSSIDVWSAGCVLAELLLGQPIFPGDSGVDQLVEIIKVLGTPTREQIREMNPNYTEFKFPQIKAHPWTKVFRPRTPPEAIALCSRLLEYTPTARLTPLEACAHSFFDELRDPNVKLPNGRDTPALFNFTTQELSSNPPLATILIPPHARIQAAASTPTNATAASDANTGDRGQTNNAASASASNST

A word on the Cmax: it is the maximum level reached in the sampled fluid or tissue. The AUC is concentration integrated over time. Read a low AUC as less exposure. The Tmax is the time at which the peak concentration occurs. As for `O[C@H]([C@H](O)[C@@H]1CO1)[C@H]1CO1` [dianhydrogalactitol], the median survival time in [1] (3 mg/kg i.p. 3 times/week x 3 weeks) amounted to 54 days; in series [1] (4 mg/kg i.p. 3 times/week x 3 weeks) it was 72 days; in [1] (5 mg/kg i.p., 4 doses only) it was 57 days. Besides, the Recovery result in the series with GBM (GBM, historical data) is on record as “Within 7-8 days”. For the same compound, the “efficacy in combination with radiation versus radiation alone” value in the series with GBM (human, in vivo, iv) is “superior to radiation alone”. In addition, the DLT entry in the series with GBM (human, in vivo) is on record as “Hematologic”. The “Median O.S. (XRT + Chemo)” value in the series with GBM (human, in vivo) was 67 weeks. For the same compound, the Nadir with GBM (human, in vivo) was 18 to 21 days. Further, the “Other Severe Toxicities Reported (>2%)” value with GBM (human, in vivo) is reported as “None”. In [2], the “effect on normal human neural stem cells” value is “minimal effect”. In series [3], the “inhibition of tumor (cell) growth compared with TMZ” value is given as “better than TMZ”. Also, the “maximum tolerated dose (MTD), as 33 day cycle cumulative dose” value in series [4] is recorded as above 120 mg/m^2. In addition, the “inhibition of growth of cancer stem cells” value in series [5] is 80-100%. The “tumor response in cohort 6” value in series [6] (30 mg/m^2, after 1 cycle, one of two patients) is on record as “exhibited stable disease”. For the same compound, the “Tumor Response, Overall” value worked out at 25% in series [6] (GBM patients, n = 8) and 17% in series [8]. Also, the “Tumor Response, type (number of patients)” value in [6] (GBM patients, n = 8) is “PR (1); SD”; in series [8] it was “SD (1)”. The “MRI scans, abnormal enhancement” value in [6] (Patient #26, T=0 vs T=64 days, after two cycles) is given as “Thick confluent regions of abnormal enhancement have diminished”. For the same compound, the “patients exhibiting a response (stable disease or partial response)” value in series [6] (early cohorts, Example 1) is listed as “Two patients exhibiting a response”. Moreover, the “average Cmax” value in [7] (10 mg/m^2) is reported as below 200 ng/mL. Further, the peak concentration (Cmax) in series [7] (20 mg/m^2, average) worked out at 180 ng/mL; in series [7] (Cohort 1, 1.5 mg/m^2), 16.5 ng/mL; in series [7] (Cohort 2, 3 mg/m^2), 46.4 ng/mL; in series [7] (Cohort 3, 5 mg/m^2), 80.5 ng/mL; in series [7] (Cohort 4, 10 mg/m^2) it was 172.0 ng/mL. In addition, the AUC worked out at 18.9 ng·h/mL in [7] (Cohort 1, 1.5 mg/m^2); 48.5 ng·h/mL in series [7] (Cohort 2, 3 mg/m^2); 108.0 ng·h/mL in [7] (Cohort 3, 5 mg/m^2); 191.7 ng·h/mL in series [7] (Cohort 4, 10 mg/m^2). The time to peak (Tmax) was 15 min in [7] (Cohort 1, 1.5 mg/m^2); 15 min in series [7] (Cohort 2, 3 mg/m^2); 15 min in [7] (Cohort 3, 5 mg/m^2); 15 min in series [7] (Cohort 4, 10 mg/m^2). In addition, the t-½ in [7] (Cohort 1, 1.5 mg/m^2) was determined as 2.02 h; in series [7] (Cohort 2, 3 mg/m^2) it was 0.83 h; in series [7] (Cohort 3, 5 mg/m^2) it was 1.27 h; in series [7] (Cohort 4, 10 mg/m^2) it was 1.19 h. The “time of peak concentration after initiation of the intravenous infusion” value in series [7] (all dose levels 1.5-10 mg/m^2) is 0.25. The “time for plasma concentrations to return to near baseline after dosing” value in [7] (cohorts 1-4) is at most 8 h. In addition, the “dose dependence of systemic exposure” value in series [7] is reported as “dose-dependent linear systemic exposure”; in [7] (listed as DAG), “more than dose proportional increase in exposure”; in series [7] (listed as Dianhydrogalactitol), “dose-dependent increase in exposure”; in [7] (listed as VAL-083), “dose-dependent linear systemic exposure”. The compound also returned a plasma half-life in series [7] (patients, IV) of 60 to 120 min. Moreover, the plasma terminal half-life in series [7] (patients, IV) was in the range of 60 to 120 min.

On to `CN1C(=O)/C(=C2/C(=O)Nc3ccccc32)c2ccccc21` [meisoindigo], for which the “concentration for inhibition of GSK-3β” value in series [9] is 5 to 50 nM.

In the case of `Cn1nnc2c(C(N)=O)ncn2c1=O` [temozolomide], the “day of termination at the end of the study” value in series [1] (TMZ 30 mg/kg) came to 102 days. In the series on GBM (GBM, historical data), the DLT result is recorded as “Hematologic”, the Nadir was 21 to 28 days and the Recovery entry is reported as “Within 14 days”.

As for `O=NN(CCCl)C(=O)NCCCl` [Carmustine], the “Median O.S. (XRT + Chemo)” value in the series with GBM (GBM, historical data) is given as 40-50 weeks. Further, the Nadir with GBM (human, in vivo) is 21 to 35 days.
